Where two headings read alike, the source gives them in different places.
How the values were obtained:
[1] = tested on: fetal globin (cultured erythroid progenitor cells); settings: cited from earlier work
[2] = tested on: fetal globin mRNA (human erythroleukemia cells); assay: Fetal globin mRNA in erythroleukemia cells (primer extension); assay type: cell-based
Experimental: Compounds were tested for increased expression of the human globin genes in human erythroid cells. In addition, as the cell line being tested is a tumor cell line, the assay determines if differentiation, a growth inhibitory effect on cancer cells, is induced by the compounds tested. Human erythroleukemia cells were cultured in RPMI media with 10% fetal calf serum alone or with treatment with various compounds for 4 days. Globin MRNA was quantitated by primer extension analysis. Fetal globin mRNA was compared to the amount of fetal globin mRNA produced in untreated cells during the same culture period. The quantitation was expressed as a percent of alpha globin MRNA which was constant. Results are expressed proportional to α-globin mRNA (Table 3).

anemic baboon = assay: In vivo reticulocyte proliferation, globin expression and blood counts in anemic (phlebotomized) baboons
Experimental: Experiments were performed to determine if administration of the chemical compositions could induce fetal globin gene expression in an in vivo model similar to humans (S. P. Perrine et al., Brit. J. Haematol. 88:555-61, 1994). Briefly, chemicals were prepared as sterile pharmaceutical solutions in pH adjusted sterile water. A variety of chemical compositions were administered sequentially to some baboons. After administration of one compound, a wash-out period with no compound administration was maintained until reticulocytes returned to base line prior to administration of the next compound. This was done, at least partly, to compare the magnitude of response which occurred within the same individual animal to different compounds.
Briefly, juvenile female baboons (2 years old) were catheterized with arterial and venous catheters and phlebotomized gradually every day to maintain a moderate anemia of 7.0 to 7.5 grams hemoglobin/dl. Fetal reticulocytes, the newly produced red blood cells containing fetal globin, were assayed using a monoclonal antibody against fetal globin (HbF) as described by G. Dover et al. (Blood 67:735-38, 1986). Briefly, blood was stained with two antibodies, one specific for reticulocytes and another against fetal globin protein. The amount of antibody bound cells was determined by FACS analysis. Globin chain synthesis was assayed as described by J. B. Clegg et al. (J. Mol. Biol. 19:91-108, 1966). Briefly, reticulocytes were radio-labeled with ^3 H-leucine which was incorporated in equal proportions into actively synthesized globin chains. After incubation in leucine-free media, cells were washed, and globin proteins were separated and purified by column chromatography. Radioactivity incorporated into each peak is compared and the ratios of gamma to gamma plus beta globin calculated. Each animal served as its own control with baseline monitoring assays performed for 4-6 weeks before any drug was administered. Phlebotomy was continued daily, so that peripheral HbF levels in the animals were not considered to be accurate over the short treatment time-frames and were not monitored. Safety monitoring was performed by frequent physical examinations, quantitation of food eaten, activity and frequent chemistry and hematology monitoring. Complete blood counts were assayed before, during and after treatment. Results presented were not adjusted to account for the daily phlebotomy.

[3] = tested on: fetal globin (gamma globin); assay: Fetal globin expression in erythroid progenitor cells from cord blood; assay type: cell-based, human; settings: for Gamma/(Gamma + Beta): Exp. B, 12-13 days, untreated 25.4%, 27.5%
Experimental: Compositions were tested for activity in inducing fetal globin expression and protein production in erythroid progenitor cells cultured from human cord blood and analyzed as described by S. P. Perrine et al. (Blood 74: 454-60, 1989). Briefly, mononuclear cells were cultured in IMDM with 30% fetal calf serum and 2 units erythropoietin per ml to induce erythroid differentiation. Colonies were harvested on day 12-13, incubated with radio-labelled (^3 H) leucine, and further incubated in leucine-free media, still in the presence of compounds, overnight. Globin composition in the erythroid cells was analyzed by laser densitometry of electrophoretically separated globin chains stained with Coomassie blue, and by autoradiography. Treated cells were incubated for 12-13 days (Table 2, Experiments A and B) or overnight (Table 2, Experiment C) in the presence of the indicated compounds and compared to untreated control cells cultured from the same human subject.

fetal globin production = settings: cited from earlier work
[4] = tested on: proximal promoter of the gamma globin gene (K562 cells); assay: Gamma globin promoter-neomycin transfection (61 bp proximal promoter), G418-resistant colonies; assay type: cell-based, human; settings: 1 mM, 8 weeks in G418
Experimental: Gamma globin promoter-neomycin transfection experiments were performed to determine if compounds act by inducing an increase in activity from the proximal promoter of the gamma globin gene. Constructs containing 61 bp of the proximal gamma globin promoter were linked to the reporter gene for neomycin phosphotransferase (NEO) and transfected into permissive K562 cells by electroporation. After 18 hours, transfected cells were passed at 10^3 cells per well into RPMI media containing G418 (neomycin), which kills all mammalian cells unless the gene for NEO is expressed. Phenoxyacetic acid and thiophenoxyacetic acid were added to some of the cells plated into the RPMI/G418 media at concentrations of 1 mM. Cultures were incubated for 8 weeks with media changes performed as needed. Colonies which survived and grew in the presence of G418 were scored and the number of such colonies was compared to those generated when the cells were plated into G418 media without the test compounds. […] There was a greater than 6-fold (>600%) increase in proportions of colonies surviving the presence of phenoxyacetic acid (6/24 wells) and a three-fold (300%) increase in survival in the presence of thiophenoxyacetic acid (3/24 wells).

[5] = tested on: system A transport (K562 cells and nucleated erythroblasts from fetal liver); assay: Effects on system A amino acid transport (3H-MAIB uptake); assay type: cell-based, human
Experimental: Inhibition of nutrient uptake is undesirable for treatment of anemias. Methyl aminoisobutyric acid (MAIB) labeled with tritium (^3 H) is normally taken up by system A amino acid transport. Cold (unlabeled) compounds were added to cultures containing ^3 H-MAIB and incubated for 1 hour. Cells were harvested and the amount of ^3 H taken up by cells was quantitated by scintillation counting.

Q: Which results are given for O=C(O)CCCc1ccccc1 [4-phenyl butyrate]?
A: fetal globin expressing reticulocyte proliferation [1]: decrease fetal globin expressing reticulocyte proliferation; relative proportions of fetal globin per cell [1]: increase relative proportions of fetal globin per cell

Q: Which “induction of fetal globin mRNA” value [2] does the source give for CCCC(=O)OCC(O)CO (stereo not shown) [MB, monobutyrin] here?
A: The value was “significantly increased the induction of fetal globin MRNA”.

Q: What about the “Gamma Globin mRNA (increase)” value ([2]; 1.0 mM, 4 days) of the same compound?
A: The value was 26%.

Q: And the Gamma/Alpha ([2]; 1.0 mM, 4 days, untreated 0.46)?
A: Its Gamma/Alpha is 0.73.

Q: What about the “increase in fetal reticulocytes above basal levels” value (anemic baboon; 500 to 2,000 mg/kg i.v. daily, 4 days) of the same compound?
A: Its value is 220%.

Q: And the Fetal reticulocytes (anemic baboon; 500 to 2,000 mg/kg i.v. daily, 4 days, from 12%)?
A: Its Fetal reticulocytes is 27%.

Q: Which “Gamma/(Gamma + Beta)” value ([3]; 0.05 mM) does the source give for CC(CO)C(N)=O (stereo not shown) [MHPP, 2 methyl-3-hydroxypropionamide] here?
A: The value was 29.8%.

Q: And the “Gamma/(Gamma + Beta)” value ([3]; 1.0 mM)?
A: Its value is 24.0%.

Q: What about the “expression of fetal globin” value ([3]; concentrations above 0.25 mM (FIG. 4)) of the same compound?
A: Its value is “decreased the expression of fetal globin”.

Q: What about the fetal globin expression ([3]; concentrations below 0.25 mM) of the same compound?
A: Its fetal globin expression is “increased fetal globin expression”.

Q: Which “fetal globin expressing reticulocyte proliferation” value [1] does the source give for CC(=O)Oc1ccccc1 [Phenyl acetate] here?
A: The value was “decrease fetal globin expressing reticulocyte proliferation”.

Q: What about the “relative proportions of fetal globin per cell” value [1] of the same compound?
A: Its value is “increase relative proportions of fetal globin per cell”.

Q: Which “stimulation of fetal globin production” value (fetal globin production) does the source give for CCCC(=O)[O-].[Na+] [sodium butyrate] here?
A: Its value is “effective in stimulating fetal globin production”.

Q: With O=C(O)CSc1ccccc1 [thiophenoxyacetic acid] as the compound, how does the “increase in proportions of colonies surviving” value [4] read?
A: The value was “three-fold”.

Q: What about the colonies surviving ([4]; none of 24 wells without compound) of the same compound?
A: The colonies surviving was 3/24.

Q: And the activation at 1000 µM ([4]; Homo sapiens, K562, 1344 h, read-out: increase in proportions of colonies surviving)?
A: The activation at 1000 µM was 300%.

Q: Which results are given for CCCC(=O)OCC(COC(=O)CCC)OC(=O)CCC [tributyrin]?
A: Gamma globin expression (anemic baboon; 500 to 750 mg/kg per day i.v., 3 days, from 0%): about 2.2 % of total non-alpha globin expression; Fetal reticulocytes (anemic baboon; 500 to 750 mg/kg per day i.v., 3 days, from 10%): 14%

Q: Which “stimulation of fetal globin production” value (fetal globin production) does the source give for CCC(N)C(=O)O (stereo not drawn) [α-amino-n-butyric acid] here?
A: The value was “effective in stimulating fetal globin production”.

Q: With CC(=Cc1ccccc1)C(=O)O [α-methyl cinnamic acid] as the compound, how does the “system A (neutral) amino acid transport” value [5] read?
A: The value was “do not significantly alter system A transport of amino acids”.

Q: With CC(Cc1ccccc1)C(=O)O (stereo not drawn) [α-methyl hydrocinnamic acid] as the compound, how does the “system A (neutral) amino acid transport” value ([5]; 1 hour, 3H-MAIB (FIG. 12)) read?
A: The value was “caused no significant inhibition and actually increased uptake of nutrients into cells”.

Q: What about the “production of blood cell types” value (anemic baboon; baboons) of the same compound?
A: The value was “stimulated production of many different cell types”.

Q: And the “red blood cell count” value (anemic baboon; first baboon, infusion 500-1,000 mg/kg, 5 days, from 2.28)?
A: The value was 3.53 10^6 red blood cells per microliter.

Q: What about the “white blood cell count” value (anemic baboon; first baboon, infusion 500-1,000 mg/kg, 5 days, from 4.1) of the same compound?
A: The value was 11.5.

Q: And the “total number of reticulocytes” value (anemic baboon; first baboon, infusion 500-1,000 mg/kg, 5 days, from 5.6%)?
A: The value was 11%.

Q: What about the “total hemoglobin after treatment” value (anemic baboon; first baboon, infusion 500-1,000 mg/kg, 5 days, from 6.4) of the same compound?
A: The value was 7.9 grams/dl.

Q: And the “packed red blood cell volume” value (anemic baboon; first baboon, infusion 500-1,000 mg/kg, 5 days, from 19.5%)?
A: The value was 31.2 % of total blood volume.

Q: And the platelet count (anemic baboon; first baboon, infusion 500-1,000 mg/kg, 5 days, from 26.7)?
A: Its platelet count is 46.8 10^4 cells/μl.

Q: And the “rise in total hemoglobin” value (anemic baboon; first baboon, infusion 500-1,000 mg/kg, 5 days, over 3 days)?
A: The value was 1.5 grams/dl.

Q: And the “rise in total hemoglobin” value (anemic baboon; second baboon, 500-700 mg/kg, 5 days)?
A: Its value is 1.4 grams.

Q: And the “Red blood cell counts” value (anemic baboon; second baboon, 500-700 mg/kg, 5 days, from 2.3×10^6)?
A: The value was 2.82×10^6.

Q: And the Total hemoglobin (anemic baboon; second baboon, 500-700 mg/kg, 5 days, from 4.6)?
A: The Total hemoglobin was 6.0 g/dL.

Q: And the “packed red blood cell volume” value (anemic baboon; second baboon, 500-700 mg/kg, 5 days, from 14.5%)?
A: The value was 20.2%.

Q: What about the “White blood cell counts (maximum)” value (anemic baboon; second baboon, 500-700 mg/kg, 5 days, from 8,700) of the same compound?
A: Its value is 14,300.

Q: What about the “platelet counts (high)” value (anemic baboon; second baboon, 500-700 mg/kg, 5 days, from 328,000) of the same compound?
A: The value was 486,000.

Q: What about the “Total fetal globin synthesis” value (anemic baboon; second baboon, 500-700 mg/kg, after 5 days, from 4.0%) of the same compound?
A: The value was 10.8%.

Q: And the adverse effects (anemic baboon; third baboon, same dose, 5 days)?
A: Its adverse effects is “No adverse affects were observed”.

Q: What about the “Fetal globin protein synthesis” value (anemic baboon; third baboon, same dose, 5 days, from 0%) of the same compound?
A: Its value is 6.2 % of non-alpha globin.

Q: And the “fetal hemoglobin producing reticulocytes” value (anemic baboon; third baboon, same dose, after 5 days (FIG. 8), from 0%)?
A: The value was 10%.
